Measured values reported in patent US6362341B1, “Benzyl compounds which inhibit leukocyte adhesion mediated by VLA-4” (Athena Neurosciences, Inc., priority 1997, dated 2002).
Non-standard residues stand in square brackets, D forms with d. Residues, ends and D or L forms follow the SMILES beside them. *: point of attachment. Tos = Cc1ccc(S(=O)(=O)*)cc1; Thz = O=C(O)[C@@H]1CSCN1

What was measured:
[1] = system: Experimental Autoimmune Encephalomyelitis (EAE) model, motor impairment; assay: In vivo evaluation - Experimental Autoimmune Encephalomyelitis (EAE); parameters: species or system Lewis rats or Hartley guinea pigs; conditions: active = delayed onset of symptoms, e.g. clinical scores no greater than 2 or slowed body weight loss as compared to the control; treatment from Day 8, bid, five days

melting point [°C]	SMILES	activity in EAE model (delay of onset of symptoms) [1]
70 to 80	O=C(O)[C@H](Cc1ccccc1)NC(=O)[C@@H]1CCCN1S(=O)(=O)c1ccc([N+](=O)[O-])cc1 [Example 27, N-(4-Nitrobenzenesulfonyl)-L-prolyl-L-phenylalanine]	
127 to 130	Cc1ccc(S(=O)(=O)N2CCC[C@H]2C(=O)N[C@@H](Cc2ccccc2)C(=O)NOCc2ccccc2)cc1 [Example 43, N-(Toluene-4-sulfonyl)-L-prolyl-L-phenylalanine N-Benzyloxyamide]	
69 to 71	O=C(O)[C@H](Cc1ccccc1)NC(=O)[C@@H]1CCCN1S(=O)(=O)c1ccc(Cl)cc1 [Example 10, N-(4-Chlorobenzenesulfonyl)-L-prolyl-L-phenylalanine]	
91 to 95	Cc1ccc(S(=O)(=O)N2CCC[C@H]2C(=O)NC(Cc2ccccc2)C(=O)NCCC(=O)O)cc1 (mixture of isomers) [Example 45, N-(Toluene-4-sulfonyl)-L-prolyl-D,L-phenylalanyl-β-alanine]	

Second part, the molecule before the results:

SMILES	melting point [°C]	activity in EAE model (delay of onset of symptoms) [1]
Cc1ccc(S(=O)(=O)N2CCC[C@H]2C(=O)NC(Cc2nc[nH]n2)C(=O)O)cc1 (mixture of isomers) [Example 66, N-(Toluene-4-sulfonyl)-L-prolyl-D,L-β-(1,2,4-triazol-3-yl)alanine]	153 to 163	
COC(=O)c1ccccc1S(=O)(=O)N1CCC[C@H]1C(=O)N[C@@H](Cc1ccccc1)C(=O)O [Example 18, N-(2-Methoxycarbonylbenzenesulfonyl)-L-prolyl-L-phenylalanine]	163 to 165	
Cc1ccc(S(=O)(=O)N2CSC[C@H]2C(=O)N[C@@H](Cc2ccccc2)C(=O)O)cc1 [Example 20, N-(Toluene-4-sulfonyl)-L-thiaprolyl-L-phenylalanine] (Tos-[Thz]-Phe-OH)	60 to 65	
Cc1ccc(S(=O)(=O)N2CCC[C@H]2C(=O)N[C@@H](Cc2ccccc2)C(=O)O)cc1 [Example 3, N-(Toluene-4-sulfonyl)-L-prolyl-L-phenylalanine] (Tos-Pro-Phe-OH)		active
